Test results reported in patent US20240226034A1, “Use of Terpenoids and Salicylates as Anesthetics and Analgesics” (THE REGENTS OF THE UNIVERSITY OF CALIFORNIA, priority 2021, published 2024).

Columns and labels:
[1] = cited from earlier work
[2] = biological target: T1, Nav1.2 channels (human SCN2A) (Homo sapiens, UniProt Q99250); experiment: Two-electrode voltage clamp of Nav1.2 channels expressed in Xenopus oocytes; format: cell-based; details: for inhibition of Nav1.2 channels: at the mean plasma concentration during IV infusion anesthesia in rats; for Hill coefficient, Nav1.2 channel inhibition: dose-response model; for effect on Nav1.2 channel currents: dose-response, oocytes
T1 construct: expressed in transfected cells; host or cells: Xenopus laevis oocytes (RNA injection)
T1 sequence (Q99250 whole entry, the tested form may be a part): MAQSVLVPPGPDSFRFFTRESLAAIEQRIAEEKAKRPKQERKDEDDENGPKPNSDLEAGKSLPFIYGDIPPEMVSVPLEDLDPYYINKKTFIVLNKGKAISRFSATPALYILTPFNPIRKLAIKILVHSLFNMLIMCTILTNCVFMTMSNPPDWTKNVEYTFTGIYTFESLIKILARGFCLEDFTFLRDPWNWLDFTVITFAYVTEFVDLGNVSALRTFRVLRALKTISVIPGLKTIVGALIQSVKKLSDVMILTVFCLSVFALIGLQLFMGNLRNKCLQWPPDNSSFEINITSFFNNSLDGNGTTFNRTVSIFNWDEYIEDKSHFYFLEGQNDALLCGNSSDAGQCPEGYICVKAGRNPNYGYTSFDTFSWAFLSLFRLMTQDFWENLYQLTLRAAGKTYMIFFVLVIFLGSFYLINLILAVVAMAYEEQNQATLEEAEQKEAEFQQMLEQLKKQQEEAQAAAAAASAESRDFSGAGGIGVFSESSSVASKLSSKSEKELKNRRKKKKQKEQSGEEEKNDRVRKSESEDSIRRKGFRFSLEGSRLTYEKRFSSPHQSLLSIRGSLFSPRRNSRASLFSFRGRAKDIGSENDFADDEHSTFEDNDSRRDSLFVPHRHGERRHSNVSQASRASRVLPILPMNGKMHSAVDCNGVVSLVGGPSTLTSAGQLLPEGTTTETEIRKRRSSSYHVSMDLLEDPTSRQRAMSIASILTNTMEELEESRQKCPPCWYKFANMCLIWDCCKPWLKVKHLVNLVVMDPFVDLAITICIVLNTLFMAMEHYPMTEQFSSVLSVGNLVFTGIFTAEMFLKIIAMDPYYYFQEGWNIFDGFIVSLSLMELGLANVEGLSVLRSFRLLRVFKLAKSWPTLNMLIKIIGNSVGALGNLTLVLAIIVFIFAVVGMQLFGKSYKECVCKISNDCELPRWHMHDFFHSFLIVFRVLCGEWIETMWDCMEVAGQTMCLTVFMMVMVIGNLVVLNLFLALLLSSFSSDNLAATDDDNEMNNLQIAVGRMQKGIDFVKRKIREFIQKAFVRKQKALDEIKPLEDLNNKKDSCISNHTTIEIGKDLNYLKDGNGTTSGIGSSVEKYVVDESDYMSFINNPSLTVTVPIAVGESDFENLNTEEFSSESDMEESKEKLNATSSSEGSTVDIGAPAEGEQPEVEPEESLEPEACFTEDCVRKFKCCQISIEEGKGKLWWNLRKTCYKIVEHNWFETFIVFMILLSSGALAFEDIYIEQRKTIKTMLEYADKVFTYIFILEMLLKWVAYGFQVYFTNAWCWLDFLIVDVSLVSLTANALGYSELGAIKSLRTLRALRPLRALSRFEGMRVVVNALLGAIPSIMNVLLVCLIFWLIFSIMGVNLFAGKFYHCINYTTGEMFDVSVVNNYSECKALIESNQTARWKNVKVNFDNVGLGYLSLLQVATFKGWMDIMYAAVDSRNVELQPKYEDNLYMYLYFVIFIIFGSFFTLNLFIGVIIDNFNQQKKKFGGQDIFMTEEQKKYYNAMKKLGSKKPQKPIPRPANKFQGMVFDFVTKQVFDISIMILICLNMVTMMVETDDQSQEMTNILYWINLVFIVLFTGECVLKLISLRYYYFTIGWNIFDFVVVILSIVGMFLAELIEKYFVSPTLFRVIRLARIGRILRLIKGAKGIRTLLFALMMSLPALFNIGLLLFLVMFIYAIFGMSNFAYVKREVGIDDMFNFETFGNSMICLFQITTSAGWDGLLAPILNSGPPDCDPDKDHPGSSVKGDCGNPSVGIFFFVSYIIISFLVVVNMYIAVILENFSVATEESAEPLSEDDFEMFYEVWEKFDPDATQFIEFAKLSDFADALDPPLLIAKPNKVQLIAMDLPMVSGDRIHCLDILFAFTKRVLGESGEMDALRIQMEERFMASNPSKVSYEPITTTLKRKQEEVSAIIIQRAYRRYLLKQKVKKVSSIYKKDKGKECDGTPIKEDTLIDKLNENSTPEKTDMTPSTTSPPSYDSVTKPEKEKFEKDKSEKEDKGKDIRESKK
Description: Ovaries removed from sexually mature Xenopus laevis frogs were bluntly dissected to remove surrounding connective tissue and then digested with 0.2% type I collagenase in an oocyte Ringer's solution. Once free from thecal cells and connective tissue, individual oocytes were rinsed, sorted, and stored in a modified Barth's solution (R. Brosnan et al., Anesth. Analg. 103, (2006): 86; L. Yang, P. S. Milutinovic, R. J. Brosnan, E. I. Eger 2nd, & J. M. Sonner, Anesth. Analg. 105, (2007): 393; R. J. Brosnan, F. B. Fukushima, & T. L. Pham, Anaesth. Analg. 44, (2017): 577; A. Cenani, R. J. Brosnan, & H. K. Knych, Pharmacology 103, (2019): 10).
Heteromeric GABAA receptors were expressed in oocytes by blind intranuclear injection of 1 ng DNA encoding the human al (GABRA1) and rat B2 (GABRB2) subunits in a 1:1 ratio. NMDA receptors were expressed by intracytoplasmic injection of 5 ng RNA encoding rat NR1 (GRIN1) and rat NR2a (GRIN2A) subunits in a 1:1 ratio. Nax 1.2 channels were expressed by injection of 5 ng RNA encoding the human SCN2A gene.
Studies of the Nav1.2 channels were carried out Using the same equipment as above, oocytes were perfused with FR and clamped at −80 mV transmembrane potential. Every 2 min, a 6-s step potential to 0 mV was applied to open the channel; this was repeated until baseline responses stabilized. Next, FR containing the test drug was perfused for 2 min followed by another 6-s step voltage change to 0 mV. Finally, FR was perfused for 5 min to wash out the drug, and another 6-s step clamp to 0 mV was applied to confirm that post-drug currents had returned to within 10% of pre-drug values.
The change in whole cell peak current before and during agonist exposure (for GABAA and NMDA receptors) or before and during the voltage step clamp (for Nav1.2 channels) was measured in the tracings immediately before and during drug exposure. Percent change in current was calculated as follows:
[formula] • where IB is the baseline pre-drug current peak and ID is the drug current peak. For each drug and ion channel, data were fit to a Hill equation using nonlinear regression with sequential quadratic programming and bootstrap estimates of parameter standard errors (SPSS, v. 27; IBM, Armonk, NY, USA). In the model, maximum drug inhibition (Imax) was constrained to not be less than −100%. Initial parameter estimates were seeded with values based on visual inspection of respective dose-response curves in order to facilitate model convergence.

[3] = system: Sprague Dawley rats; experiment: Continuous IV infusion anesthesia; format: in vivo, rat; details: for time after start of injection to loss-of-righting and absent tail clamp response: continuous 0.2 mL/min IV infusion of 10% emulsion
Method: Lateral tail veins were catheterized in eight, 70-day-old, male, Sprague Dawley rats weighing 309±6 g. A 10% solution of L-carvone or methyl salicylate in 20% […]® was each administered IV to 8 rats (4 animals per drug treatment) by using a syringe pump at a rate of 12 mL/h. When rats lost their righting reflex and were unresponsive to a tail clamp, a midline laparotomy was performed, the abdominal aorta catheterized, and the rat exsanguinated. Blood was collected in a heparin tube and centrifuged; plasma was separated and stored in cryogenic tubes at −80° C. until analysis.

[4] = system: sciatic nerve axon of frogs; details: frog sciatic nerve axon; read-out: IC50, decrease of compound action potential amplitude; cited from earlier work
[5] = system: rat sciatic nerves; details: read-out: IC50, decrease of compound action potentials; cited from earlier work
[6] = system: GABAA receptors, rat cerebral cortex cell cultures; details: 0.75 mM; cited from earlier work
[7] = biological target: T2, human benzodiazepine-sensitive α1β2γ2s GABAA receptors (Homo sapiens, UniProt P14867+P18507+P47870); details: concentrations up to 0.12 mM; cited from earlier work
T2 construct: host or cells: frog oocytes
T2 sequence (P14867 28-456): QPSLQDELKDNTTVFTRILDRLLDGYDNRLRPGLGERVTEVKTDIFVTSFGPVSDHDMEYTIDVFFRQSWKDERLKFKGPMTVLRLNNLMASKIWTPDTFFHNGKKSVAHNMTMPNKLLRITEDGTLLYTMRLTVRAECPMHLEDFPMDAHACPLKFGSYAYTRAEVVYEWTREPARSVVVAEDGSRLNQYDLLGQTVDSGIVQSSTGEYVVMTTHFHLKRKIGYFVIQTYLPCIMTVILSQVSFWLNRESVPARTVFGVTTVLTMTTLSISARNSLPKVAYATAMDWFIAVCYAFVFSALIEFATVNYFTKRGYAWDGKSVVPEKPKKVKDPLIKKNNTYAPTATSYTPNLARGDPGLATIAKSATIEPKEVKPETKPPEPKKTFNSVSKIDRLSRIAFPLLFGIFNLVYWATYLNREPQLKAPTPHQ
T2 sequence (P47870 26-474 isoform P47870-1 limits assumed): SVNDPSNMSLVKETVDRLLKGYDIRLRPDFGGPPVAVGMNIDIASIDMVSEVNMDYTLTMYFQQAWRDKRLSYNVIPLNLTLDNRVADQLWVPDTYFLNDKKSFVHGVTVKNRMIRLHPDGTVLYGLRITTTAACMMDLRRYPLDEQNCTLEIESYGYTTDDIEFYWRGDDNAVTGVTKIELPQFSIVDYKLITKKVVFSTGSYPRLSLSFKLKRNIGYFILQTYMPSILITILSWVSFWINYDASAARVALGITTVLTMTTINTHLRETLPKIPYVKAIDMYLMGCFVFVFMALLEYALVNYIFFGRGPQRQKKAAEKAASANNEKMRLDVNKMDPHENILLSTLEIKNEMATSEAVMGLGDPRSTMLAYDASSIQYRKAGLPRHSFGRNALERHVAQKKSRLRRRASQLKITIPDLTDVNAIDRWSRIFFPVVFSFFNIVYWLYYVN
T2 sequence (P18507 40-467 isoform P18507-1 limits assumed): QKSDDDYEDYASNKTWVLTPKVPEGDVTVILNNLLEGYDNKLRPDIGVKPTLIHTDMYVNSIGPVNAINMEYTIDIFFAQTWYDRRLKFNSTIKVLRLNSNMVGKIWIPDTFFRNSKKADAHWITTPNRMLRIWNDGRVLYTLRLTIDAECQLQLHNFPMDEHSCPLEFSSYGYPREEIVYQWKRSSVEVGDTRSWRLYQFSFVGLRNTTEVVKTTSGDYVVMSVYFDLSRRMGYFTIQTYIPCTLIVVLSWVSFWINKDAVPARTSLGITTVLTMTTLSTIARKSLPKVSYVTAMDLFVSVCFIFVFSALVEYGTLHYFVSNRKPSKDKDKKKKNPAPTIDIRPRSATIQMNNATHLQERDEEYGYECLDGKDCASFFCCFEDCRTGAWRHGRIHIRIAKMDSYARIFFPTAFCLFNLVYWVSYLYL

Molecule	solubility in water relative to cutoff values for modulation of the 3 ion channels [1]	inhibition of Nav1.2 channels [2]	greater potency for Nav1.2 channels than for NMDA receptors ([2]; comparison of IC50, FIG. 4)	Hill coefficient, Nav1.2 channel inhibition [2]	effect on Nav1.2 channel currents [2]	time after start of injection to loss-of-righting and absent tail clamp response [3]	excitement after injection ([3]; rat, in vivo, iv)	tonic or clonic muscle activity ([3]; rat, in vivo, iv)	IC50 [4]	IC50 [5]	reduction of GABAA-induced benzodiazepine binding [6]	Nav1.2 channel current at highest concentration ([2]; 10 mM drug)	tonic or clonic muscle activity ([3]; continuous 0.2 mL/min IV infusion)	response of α1β2γ2s GABAA receptors [7]
COC(=O)c1ccccc1O [methyl salicylate]	more soluble in water than the cutoff values	78%	50%	greater than 1	dose-dependently inhibited	3 to 4 min	transient excitement in half of the animals	No tonic or clonic muscle activity	–	–	–	–	–	–
L-carvone	–	90%	–	~1	dose-dependent inhibition	2 to 4 min	–	–	1.4 mM	8.7 mM	36%	near or complete loss of channel currents	tonic muscle contractions suggestive of seizure	minimal response
